The values below come from patent US11266643B2, “Triaryl compounds for treatment of PD-L1 diseases” (CHEMOCENTRYX, INC., priority 2019, dated 2022).

Structures are written as SMILES.

The experiment deals with human PD-L1 (Homo sapiens (Human), UniProt Q9NZQ7). Description: Enzyme-Linked Immunosorbent Assay (ELISA), PD-1/PD-L1 binding. As to conditions: plate-coated human PD-L1, biotinylated Human PD-1, absorbance at 450 nm. The method in brief: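 Competitive ELISA: human PD-1 […] (0.31 μg/mL) and serially diluted compounds (1:5) incubated 1 h at 37° C on wells coated with […] human PD-L1. Signal via streptavidin-HRP/TMB, stopped with 2 N H2SO4, measured as A450.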
Sequence of human PD-L1 (Q9NZQ7 19-239): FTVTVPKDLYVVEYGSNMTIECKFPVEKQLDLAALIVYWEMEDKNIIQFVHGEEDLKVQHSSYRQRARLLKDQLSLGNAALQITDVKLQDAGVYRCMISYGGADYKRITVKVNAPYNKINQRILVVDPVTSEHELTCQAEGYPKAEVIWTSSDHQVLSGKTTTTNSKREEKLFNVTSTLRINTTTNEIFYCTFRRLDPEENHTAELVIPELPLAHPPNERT
As usually defined, the IC50 is the point on the concentration scale where inhibition reaches its midpoint. Take `COc1cc(-c2cccc(-c3cccc(NC(=O)c4cn(C)c(=O)n(C)c4=O)c3Cl)c2Cl)cc(F)c1CN[C@@H]1COCC[C@H]1O` [Example 2.070]: the IC50 was less than 10 nM. For `COc1cc(-c2cccc(-c3cccc(NC(=O)c4cn(C)c(=O)n(C)c4=O)c3Cl)c2Cl)cc(F)c1CN[C@H]1COCC[C@@H]1O` [Example 2.071], the IC50 was less than 10 nM.

The compound `COc1cc(-c2cccc(-c3cccc(NC(=O)c4cn(C)c(=O)n(C)c4=O)c3C)c2Cl)cc(F)c1CN(C)[C@@H]1CNC(=O)C1` [Example 2.072] showed an IC50 of less than 10 nM. With `COc1cc(-c2cccc(-c3cccc(NC(=O)c4cn(C)c(=O)n(C)c4=O)c3Cl)c2Cl)cc(F)c1CN[C@@H]1COC[C@@H]1O` [Example 2.073], the IC50 is less than 10 nM.

`COc1cc(-c2cccc(-c3cccc(NC(=O)c4cn(C)c(=O)n(C)c4=O)c3Cl)c2Cl)cc(F)c1CN[C@H]1COC[C@H]1O` [Example 2.074] had an IC50 of less than 10 nM.

`COc1cc(-c2cccc(-c3cccc(NC(=O)c4cn(C)c(=O)n(C)c4=O)c3Cl)c2Cl)cc(F)c1CN[C@@H]1COC[C@H]1O` [Example 2.075] displayed an IC50 of less than 10 nM.

`COc1cc(-c2cccc(-c3cccc(NC(=O)c4cn(C)c(=O)n(C)c4=O)c3Cl)c2Cl)cc(F)c1CN[C@H]1COC[C@@H]1O` [Example 2.076] had a half-inhibitory concentration (IC50) of less than 10 nM.

`COc1cc(-c2cccc(-c3cccc(NC(=O)c4cn(C)c(=O)n(C)c4=O)c3Cl)c2C)cc(F)c1CN[C@H]1CCOC[C@@H]1O` [Example 2.077] gave an IC50 of less than 10 nM. As for `COc1cc(-c2cccc(-c3cccc(NC(=O)c4cn(C)c(=O)n(C)c4=O)c3Cl)c2C)cc(F)c1CN[C@@H]1CCOC[C@H]1O` [Example 2.078], the figure is less than 10 nM. The same measure for `COc1cc(-c2cccc(-c3cccc(NC(=O)c4cn(C)c(=O)n(C)c4=O)c3Cl)c2F)cc(F)c1CNC[C@@H]1CCC(=O)N1` [Example 2.079]: less than 10 nM; for `COc1cc(-c2cccc(-c3cccc(NC(=O)c4cn(C)c(=O)n(C)c4=O)c3C)c2Cl)cc(F)c1CN[C@H]1CCCOC1` [Example 2.080]: less than 10 nM. The same measure for `COc1cc(-c2cccc(-c3cccc(NC(=O)c4cn(C)c(=O)n(C)c4=O)c3Cl)c2Cl)cc(F)c1CN[C@H]1CNC(=O)C1` [Example 2.081]: less than 10 nM; for `COc1cc(-c2cccc(-c3cccc(NC(=O)c4cn(C)c(=O)n(C)c4=O)c3Cl)c2Cl)cc(F)c1CN[C@H]1CCOC[C@@H]1O` [Example 2.082]: less than 10 nM. Compound `COc1cc(-c2cccc(-c3cccc(NC(=O)c4cn(C)c(=O)n(C)c4=O)c3C)c2Cl)cc(F)c1CNC1CCOCC1` [Example 2.083] registered an IC50 of less than 10 nM. The compound `COc1cc(-c2cccc(-c3cccc(NC(=O)c4cn(C)c(=O)n(C)c4=O)c3C)c2Cl)cc(F)c1CN[C@H]1CNC(=O)C1` [Example 2.084] gave an IC50 of less than 10 nM.

In the case of `COc1cc(-c2cccc(-c3cccc(NC(=O)c4cn(C)c(=O)n(C)c4=O)c3C)c2Cl)cc(F)c1CNC(C)(C)C(N)=O` [Example 2.085], the IC50 fell in the range of 10 to 1000 nM. The same measure for `COc1cc(-c2cccc(-c3cccc(NC(=O)c4cn(C)c(=O)n(C)c4=O)c3C)c2Cl)cc(F)c1CN[C@@H]1COCC[C@H]1O` [Example 2.086]: less than 10 nM; for `COc1cc(-c2cccc(-c3cccc(NC(=O)c4cn(C)c(=O)n(C)c4=O)c3C)c2Cl)cc(F)c1CN[C@H]1CCOC1` [Example 2.087]: less than 10 nM; for `COc1cc(-c2cccc(-c3cccc(NC(=O)c4cn(C)c(=O)n(C)c4=O)c3C)c2Cl)cc(F)c1CN[C@H]1COCC[C@@H]1O` [Example 2.088]: less than 10 nM. As for `COc1cc(-c2cccc(-c3cccc(NC(=O)c4cn(C)c(=O)n(C)c4=O)c3C)c2Cl)cc(F)c1CN[C@H]1CCOC[C@@H]1O` [Example 2.089], the figure is less than 10 nM; as for `COc1cc(-c2cccc(-c3cccc(NC(=O)c4cn(C)c(=O)n(C)c4=O)c3C)c2Cl)cc(F)c1CN[C@@H]1COC[C@H]1O` [Example 2.090], less than 10 nM. The same measure for `COc1cc(-c2cccc(-c3cccc(NC(=O)c4cn(C)c(=O)n(C)c4=O)c3Cl)c2F)cc(F)c1CN[C@@H]1CCOC[C@@H]1O` [Example 2.091]: less than 10 nM. `COc1cc(-c2cccc(-c3cccc(NC(=O)c4cn(C)c(=O)n(C)c4=O)c3C)c2Cl)cc(F)c1CN[C@H]1COC[C@@H]1O` [Example 2.092] registered an IC50 of less than 10 nM. The same measure for `COc1cc(-c2cccc(-c3cccc(NC(=O)c4cn(C)c(=O)n(C)c4=O)c3C)c2Cl)cc(F)c1CN[C@H]1COC[C@H]1O` [Example 2.093]: less than 10 nM. In turn, `COc1cc(-c2cccc(-c3cccc(NC(=O)c4cn(C)c(=O)n(C)c4=O)c3C)c2Cl)cc(F)c1CN[C@@H]1COC[C@@H]1O` [Example 2.094] gave an IC50 of less than 10 nM. As for `COc1cc(-c2cccc(-c3cccc(NC(=O)c4cn(C)c(=O)n(C)c4=O)c3C)c2F)cc(F)c1CN[C@H]1CCOC[C@@H]1O` [Example 2.095], the figure is less than 10 nM; as for `COc1cc(-c2cccc(-c3cccc(NC(=O)c4cn(C)c(=O)n(C)c4=O)c3C)c2C)cc(F)c1CN[C@H]1CCOC[C@@H]1O` [Example 2.096], less than 10 nM; as for `COc1cc(-c2cccc(-c3cccc(NC(=O)c4cn(C)c(=O)n(C)c4=O)c3C)c2C)cc(F)c1CN[C@H]1CCOC[C@H]1O` [Example 2.097], less than 10 nM. The same measure for `COc1cc(-c2cccc(-c3cccc(NC(=O)c4cn(C)c(=O)n(C)c4=O)c3C)c2Cl)cc(F)c1CN[C@@H]1CCOC1` [Example 2.098]: less than 10 nM; for `COc1cc(-c2cccc(-c3cccc(NC(=O)c4cn(C)c(=O)n(C)c4=O)c3C)c2F)cc(F)c1CN[C@@H]1CCOC[C@H]1O` [Example 2.099]: less than 10 nM; for `COc1cc(-c2cccc(-c3cccc(NC(=O)c4cn(C)c(=O)n(C)c4=O)c3Cl)c2C)cc(F)c1CN(C)C[C@@H]1CCC(=O)N1` [Example 2.100]: less than 10 nM.

In turn, `COc1cc(-c2cccc(-c3cccc(NC(=O)c4cn(C)c(=O)n(C)c4=O)c3C)c2Cl)cc(F)c1CN[C@@H]1CCC(=O)NC1` [Example 2.101] displayed an IC50 of less than 10 nM. The same measure for `COc1cc(-c2cccc(-c3cccc(NC(=O)c4cn(C)c(=O)n(C)c4=O)c3C)c2Cl)cc(F)c1CN[C@@H]1CCOC[C@H]1O` [Example 2.102]: less than 10 nM; for `COc1cc(-c2cccc(-c3cccc(NC(=O)c4cn(C)c(=O)n(C)c4=O)c3Cl)c2C)cc(F)c1CN[C@H]1CCOC[C@H]1O` [Example 2.103]: less than 10 nM.

`COc1cc(-c2cccc(-c3cccc(NC(=O)c4cn(C)c(=O)n(C)c4=O)c3C)c2Cl)cc(F)c1CN[C@H]1CCOC[C@H]1O` [Example 2.104]: the IC50 is less than 10 nM.

In the case of `COc1cc(-c2cccc(-c3cccc(NC(=O)c4cn(C)c(=O)n(C)c4=O)c3C)c2F)cc(F)c1CN[C@H]1CCOC[C@H]1O` [Example 2.105], the IC50 is less than 10 nM. Compound `COc1cc(-c2cccc(-c3cccc(NC(=O)c4cn(C)c(=O)n(C)c4=O)c3F)c2Cl)cc(F)c1CN[C@@H]1CCOC[C@@H]1O` [Example 2.106] displayed an IC50 of less than 10 nM. The same measure for `COc1cc(-c2cccc(-c3cccc(NC(=O)c4cn(C)c(=O)n(C)c4=O)c3Cl)c2Cl)cc(F)c1CN[C@@H]1CCC(=O)NC1` [Example 2.107]: less than 10 nM; for `COc1cc(-c2cccc(-c3cccc(NC(=O)c4cn(C)c(=O)n(C)c4=O)c3Cl)c2Cl)cc(F)c1CNCC(C)(C)C(N)=O` [Example 2.108]: less than 10 nM.
